{"source": "paper PMC10615883", "about": "(Angewandte Chemie (International ed. in English), 2023)", "target": "Aβ40 aggregates (amyloid beta) (Homo sapiens, UniProt P05067)", "sequence (P05067 672-711 limits assumed)": "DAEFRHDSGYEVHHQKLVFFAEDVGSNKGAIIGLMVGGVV", "assay": "fluorescence titration with Aβ aggregates", "type": "binding", "data": [{"substance": "CRANAD-147", "values": [{"measurement": "Kd", "value": "2890 ± 430", "unit": "nM"}]}]}
